Read-outs that look alike come from different tables or passages of the source.
How the values were obtained:
cAMP = assay: Modulatory effect on cAMP levels in C6 cells (ELISA kit); format: cell-based; details: C6 (Rat Glioblastoma) cells, 28 hours of incubation, doses per Table 1
Description: To assess the effectiveness of test substance on modulation of cAMP and evaluation of BDNF in Rat Glioblastoma cells.
The cytotoxicity profiling of the test substance was carried out to find the safe dose on C6 cells. […] The levels of cAMP in the cell lysate were measured using a suitable ELISA kit to infer the modulatory effect.
10 mg of test substance was separately dissolved in 100 μL of DMSO and volume was made up with Ham's F-12 medium supplemented with 2% inactivated FBS to obtain a stock solution of 10 mg/mL concentration and sterilized by 0.22μ syringe filtration. Serial two-fold dilutions were prepared from this stock solution for further studies.
C6 (Rat Glioblastoma) cell line was procured from NCCS, India. Stock cells was cultured in Ham's F-12 medium supplemented with 10% inactivated Fetal Bovine Serum (FBS), penicillin (100 IU/ml), streptomycin (100 μg/ml) and amphotericin B (5 μg/ml) in a humidified atmosphere of 5% CO2 at 37° C. until confluent. Passaging was done by centrifuging the cells, followed by seeding the pellet into a tissue culture vessel. The stock cultures were grown in 25 cm2 culture flasks and all experiments will be carried out in 96 microtitre plates (Tarsons India Pvt. Ltd., Kolkata, India).
To perform the assay, cells were seeded in 24-well plates containing […] complete Ham's F-12 with 4.5 g/L glucose. […] Then, the selected dose of test substances and positive control (Clozapine) was added to the cells. After 28 hours of incubation, the cell supernatants from respective treatment wells were collected and assayed to estimate the levels of cyclic AMP using a commercially available kit.

BDNF = assay: Estimation of BDNF levels in C6 cells (Rat BDNF ELISA kit); format: cell-based; details: C6 (Rat Glioblastoma) cells, 28 hours of incubation, doses per Table 1
Description: To perform the assay, cells were seeded in 24-well plates containing 500 μL complete Ham's F-12 with 4.5 g/L glucose. After 24 h, the confluent monolayer of cells was firstly incubated with the corresponding inhibitor compound for 1-4 h (based on standardization) minutes in the incubator at 37° C. and 5% CO2. Then, the selected dose of test substances and positive control was added to the cells. After 28 hours of incubation, the cell supernatants from respective treatment wells were collected and assayed to estimate the levels of BDNF using a commercially available Rat BDNF ELISA kit.

ALCAR = assay: Estimation of ALCAR plasma level (ALCAR ELISA kit); format: cell-based, Rat; details: doses per Table 1
Description: f. Estimation of ALCAR Plasma Level (Nmol/Ml): Assay Performed by ALCAR ELISA Kit
(§1) The estimation of modulatory effect of test substance on biochemical parameters were analysed in C6 (Rat Glioblastoma) cell. […] This indicated the increase in synapse number and neuroplasticity.

[1] = tested on: CREB (Cyclic AMP Response Element-Binding Protein); assay: Estimation of CREB (Cyclic AMP Response Element-Binding Protein); format: cell-based, Rat; details: doses per Table 1
Description: g. Estimation of CREB (Cyclic AMP Response Element-Binding Protein) nM Results:
as §1

experimental rat [2] = assay: Force Swim Test in rats; format: in vivo; details: male Wister rats, n=6, end of treatment, doses per Table 3
Description: (§2) Evaluation of physical parameters of the test substances in experimental rat.
(§3) • Species: Rat • Strain: Wister • Sex: Male • No. of animals: 48 Animals (n=6 per group) • Body weight: 180-200 gm Group, Designation and Dose Levels:
(§4) The tests were performed by the known technique.
(§5) The following behavioural test were conducted at the end of the treatment, • Force Swim Test • Open Field Test • Behavioural at Novel Object Test • Behaviour at Elevated Plus Maze (EPM) test

experimental rat [3] = assay: Open Field Test in rats; format: in vivo
Description: as §2, §3, §4, §5

experimental rat [4] = assay: Novel Object Test in rats; format: in vivo
Description: as §2, §3, §4, §5
Table 5 represent behavioural at novel object test where latency time spent towards the novel objects indicated better memory and learning ability. This test is based on the spontaneous tendency of rats to spend more time exploring a novel object than a familiar one.

experimental rat [5] = assay: Elevated Plus Maze (EPM) test in rats; format: in vivo
Description: as §2, §3, §4, §5

[6] = tested on: Adult Patients with Major Depressive Disorder; assay: Double-blind, fixed-dose clinical study, Hamilton Rating Scale for Depression (HAM-D); format: in vivo, human
Description: Composition-1—(3R)-3-acetyloxy-4-(trimethylazaniumyl)butanoate+N-4-Aminobutylguanidine—500 mg+250 mg
(§6) A double-blind, Fixed-dose study, 80 participants (males and females) with major depression were randomly assigned to receive test samples. Age eligibility for study include 18 Years to 65 Years (Adult, Older Adult)
Participants were evaluated at visits at screening, baseline/randomization, and 4, 8, and 12 weeks after randomization. Masking—Triple (Participant, Investigator, Outcomes Assessor); Parallel Assignment
Pre-assignment Details: A one-week single-blind placebo period was completed prior to randomization.
Change From Baseline in Hamilton Rating Scale for Depression (HAM-D) at Week 4, 8 and 12 [Time Frame: Change from baseline in HAM-D at week 4, 8 and 12]
The HAMD is a clinician-rated 21-item scale was used to rate the patient's depressive state. It was also used to identify obsessive-compulsive, genital, and somatic symptoms, as well as diurnal variation in the presence of symptoms. Each item was scored on a 1, 2, 3, 4 or 5-point Likert scale. A score of 0 indicated the absence of symptoms, and a score of 2, 3 or 4 indicated symptoms of maximum severity. The total score range is 0 to 62 (higher score indicates a greater depressive state).

[7] = tested on: Adult Patients with Major Depressive Disorder; assay: Clinical study, serum Acetyl-L carnitine (ALCAR) levels; format: in vivo, human
Excerpt: as §6
To measure serum Acetyl-L carnitine levels pre-treatment and end of 12 weeks and correlate it with severity of depression and treatment outcomes.

[8] = male Wister rats, n=6, end of treatment, doses per Table 3
[9] = pretreatment, whole arm (Table 8)

CN1CCN(C2=Nc3cc(Cl)ccc3Nc3ccccc32)CC1 [Clozapine]
cAMP (cAMP): 4.1 pmol/µL | BDNF (BDNF): 77 ng/L | Plasma ALCAR (ALCAR): 21 nmol/mL | CREB [1]: 0.5 nM | Force Swim Test Immobility (experimental rat [2]): 189 s | Open Field Test Distance walked in corners (experimental rat [3]; [8]): 2200 cm | Open Field Test Latency to reach center (experimental rat [3]; [8]): 38 s | Latency to reach Novel Object (experimental rat [4]; [8]): 03 s | Number of times sniffing the object (experimental rat [4]; [8]): 62 times | Time Spent sniffing the object (experimental rat [4]; [8]): 13% | Number of entries in to open arm (experimental rat [5]; [8]): 10 times | Number of times head dipping (experimental rat [5]; [8]): 18 times | Number of times rearing (experimental rat [5]; [8]): 25 times | Time Spent Rearing (experimental rat [5]; [8]): 19% | Time in the open arms (experimental rat [5]; [8]): 15% | time spent head dipping (experimental rat [5]; [8]): 21%

CN(C)CCC[C@@]1(c2ccc(F)cc2)OCc2cc(C#N)ccc21 [Escitalopram]
cAMP (cAMP): 6.0 pmol/µL | Plasma ALCAR (ALCAR): 23 nmol/mL | CREB [1]: 0.8 nM | Force Swim Test Immobility (experimental rat [2]): 68 s | Open Field Test Distance walked in corners (experimental rat [3]; [8]): 1900 cm | Open Field Test Latency to reach center (experimental rat [3]; [8]): 26 s | Latency to reach Novel Object (experimental rat [4]; [8]): 32 s | Number of times sniffing the object (experimental rat [4]; [8]): 48 times | Time Spent sniffing the object (experimental rat [4]; [8]): 09% | Number of entries in to open arm (experimental rat [5]; [8]): 07 times | Number of times head dipping (experimental rat [5]; [8]): 12 times | Number of times rearing (experimental rat [5]; [8]): 18 times | Time Spent Rearing (experimental rat [5]; [8]): 16% | Time in the open arms (experimental rat [5]; [8]): 11% | time spent head dipping (experimental rat [5]; [8]): 12% | Mean HAM-D Score ([6]; Baseline): 26.2 | Mean HAM-D Score ([6]; Week-4): 25.72 | Non-Responder Rate ([6]; Week-4): (100%) | Non-Responder Rate, patients/total ([6]; Week-4): 40/40 | Remission Rate (HAM-D Score <7) ([6]; Week-4): (0%) | Remission Rate (HAM-D Score <7), patients/total ([6]; Week-4): 0/40 | Responder Rate (50% Reduction from baseline) ([6]; Week-4): (0%) | Responder Rate (50% Reduction from baseline), patients/total ([6]; Week-4): 0/40 | Mean HAM-D Score ([6]; Week-8): 21.45 | Non-Responder Rate ([6]; Week-8): (97.5%) | Non-Responder Rate, patients/total ([6]; Week-8): 39/40 | Remission Rate (HAM-D Score <7) ([6]; Week-8): (0%) | Remission Rate (HAM-D Score <7), patients/total ([6]; Week-8): 0/40 | Responder Rate (50% Reduction from baseline) ([6]; Week-8): (2.5%) | Responder Rate (50% Reduction from baseline), patients/total ([6]; Week-8): 1/40 | Mean HAM-D Score ([6]; Week-12): 13.75 | Non-Responder Rate ([6]; Week-12): (52.5%) | Non-Responder Rate, patients/total ([6]; Week-12): 21/40 | Remission Rate (HAM-D Score <7) ([6]; Week-12): (17.5%) | Remission Rate (HAM-D Score <7), patients/total ([6]; Week-12): 7/40 | Responder Rate (50% Reduction from baseline) ([6]; Week-12): (30%) | Responder Rate (50% Reduction from baseline), patients/total ([6]; Week-12): 12/40 | Non-Responder Remission Rate in Female Subgroup ([6]; Week-12, female subgroup): (75%) | Non-Responder Remission Rate in Female Subgroup, patients/total ([6]; Week-12, female subgroup): 21/28 | Responder Remission Rate in Female Subgroup ([6]; Week-12, female subgroup): (25%) | Responder Remission Rate in Female Subgroup, patients/total ([6]; Week-12, female subgroup): 7/28 | Mean HAM-D Score at pretreatment [6, 9]: 26.2 | Mean Serum ALCAR, Non-Responder group ([7]; Baseline): 0.94 µg/mL | Mean Serum ALCAR, Remission group ([7]; Baseline): 1.20 µg/mL | Mean Serum ALCAR, Responder group ([7]; Baseline): 0.91 µg/mL | Mean Serum ALCAR, Non-Responder group ([7]; Week-12): 0.99 µg/mL | Mean Serum ALCAR, Remission group ([7]; Week-12): 3.53 µg/mL | Mean Serum ALCAR, Responder group ([7]; Week-12): 2.19 µg/mL | Mean serum ALCAR at pretreatment [7, 9]: 1.01 microgram/ml

CC(=O)O[C@H](CC(=O)[O-])C[N+](C)(C)C [Group 4, (3R)-3-acetyloxy-4-(trimethylazaniumyl)butanoate]
cAMP (cAMP): 4.8 pmol/µL | BDNF (BDNF): 88 ng/L | Plasma ALCAR (ALCAR): 25 nmol/mL | CREB [1]: 1.0 nM | Force Swim Test Immobility (experimental rat [2]): 55 s | Open Field Test Distance walked in corners (experimental rat [3]; [8]): 1860 cm | Open Field Test Latency to reach center (experimental rat [3]; [8]): 27 s | Latency to reach Novel Object (experimental rat [4]; [8]): 35 s | Number of times sniffing the object (experimental rat [4]; [8]): 49 times | Time Spent sniffing the object (experimental rat [4]; [8]): 08% | Number of entries in to open arm (experimental rat [5]; [8]): 08 times | Number of times head dipping (experimental rat [5]; [8]): 12 times | Number of times rearing (experimental rat [5]; [8]): 18 times | Time Spent Rearing (experimental rat [5]; [8]): 15% | Time in the open arms (experimental rat [5]; [8]): 12% | time spent head dipping (experimental rat [5]; [8]): 11%

N=C(N)NCCCCN [Group 5, N-4-aminobutylguanidine]
cAMP (cAMP): 5.1 pmol/µL | BDNF (BDNF): 91 ng/L | Plasma ALCAR (ALCAR): 22 nmol/mL | CREB [1]: 1.2 nM | Force Swim Test Immobility (experimental rat [2]): 59 s | Open Field Test Distance walked in corners (experimental rat [3]): 1820 cm | Open Field Test Latency to reach center (experimental rat [3]): 25 s | Time Spent sniffing the object (experimental rat [4]): 09% | Latency to reach Novel Object (experimental rat [4]; [8]): 36 s | Number of times sniffing the object (experimental rat [4]; [8]): 47 times | Time Spent Rearing (experimental rat [5]): 13% | time spent head dipping (experimental rat [5]): 10% | Number of entries in to open arm (experimental rat [5]; [8]): 07 times | Number of times head dipping (experimental rat [5]; [8]): 11 times | Number of times rearing (experimental rat [5]; [8]): 16 times | Time in the open arms (experimental rat [5]; [8]): 11%

Source: patent US12226385B2, “Synergistic composition for activating intracellular secondary messenger(cAMP) pathway” (CELAGENEX RESEARCH (INDIA) PRIVATE LTD., priority 2021, dated 2025)
